Reference: patent US10112937B2, “P2X7 modulators and methods of use” (Janssen Pharmaceutica NV, priority 2013, dated 2018)
pIC50: −log10 of the molar value.

Legend:
Assay type in all cases: cell-based
human P2X7 [1] = target: T1, human P2X7 (Homo sapiens (Human), UniProt Q99572); assay: P2X7 antagonism in human PBMCs (IL-1β release after LPS + Bz-ATP, ELISA); details: human PBMCs; for PBMC 1 μM (% control): test compound 1 μM
human P2X7 [2] = target: T1, human P2X7; assay: Ca2+ flux (FLIPR) in 1321N1 cells expressing recombinant human P2X7;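 note: cells loaded with Calcium-4 dye, preincubated with test compound for 30 min, fluorescence change read 180 s after agonist addition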
Method: P2X7 Antagonism in Recombinant Human P2X7 Cells or Recombinant Rat P2X7 Cells: (a) Ca^2+ Flux and (b) Radioligand Binding
1321N1 cells expressing the recombinant human or rat P2X7 channel was cultured in HyQ DME/(HyClone/Dulbecco's Modified Eagle Medium) high glucose supplemented with 10% Fetal Bovine Serum (FBS) and appropriate selection marker. Cells were seeded at a density of 25000 cells/well (96-well clear bottom black walled plates) in 100 μl volume/well. On the day of the experiment, cell plates were washed with assay buffer, containing (in mM): 130 NaCl, 2 KCl, 1 CaCl2, 1 MgCl2, 10 HEPES, 5 glucose; pH 7.40 and 300 mOs. After the wash, cells were loaded with the Calcium-4 dye (Molecular Device) and incubated in the dark for 60 minutes. Test compounds were prepared at 250× the test concentration in neat DMSO. Intermediate 96-well compound plates were prepared by transferring 1.2 μL of the compound into 300 μL of assay buffer. A further 3× dilution occurred when transferring 50 μL/well of the compound plate to 100 μL/well in the cell plate. Cells were incubated with test compounds and dye for 30 minutes. […] The fluorescence change was measured 180 seconds after adding the agonist.

rat P2X7 = rat P2X7 (Rattus norvegicus (Rat), UniProt Q64663); assay: Ca2+ flux (FLIPR) in 1321N1 cells expressing recombinant rat P2X7;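 note: Calcium-4 dye fluorescence change read 180 s after agonist addition, with cells preincubated 30 min with compound and dye in 96-well plates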
[3] = 1321N1 cells, recombinant human P2X7, 250 μM BzATP
[4] = 1321N1 cells, recombinant rat P2X7, 250 μM BzATP
[5] = 10 μM test compound, LPS + Bz-ATP
[6] = Ca2+ flux, 250 μM BzATP, human P2X7 1321N1 cells
[7] = Ca2+ flux, 250 μM BzATP, rat P2X7 1321N1 cells

T1 sequence (Q99572 whole entry): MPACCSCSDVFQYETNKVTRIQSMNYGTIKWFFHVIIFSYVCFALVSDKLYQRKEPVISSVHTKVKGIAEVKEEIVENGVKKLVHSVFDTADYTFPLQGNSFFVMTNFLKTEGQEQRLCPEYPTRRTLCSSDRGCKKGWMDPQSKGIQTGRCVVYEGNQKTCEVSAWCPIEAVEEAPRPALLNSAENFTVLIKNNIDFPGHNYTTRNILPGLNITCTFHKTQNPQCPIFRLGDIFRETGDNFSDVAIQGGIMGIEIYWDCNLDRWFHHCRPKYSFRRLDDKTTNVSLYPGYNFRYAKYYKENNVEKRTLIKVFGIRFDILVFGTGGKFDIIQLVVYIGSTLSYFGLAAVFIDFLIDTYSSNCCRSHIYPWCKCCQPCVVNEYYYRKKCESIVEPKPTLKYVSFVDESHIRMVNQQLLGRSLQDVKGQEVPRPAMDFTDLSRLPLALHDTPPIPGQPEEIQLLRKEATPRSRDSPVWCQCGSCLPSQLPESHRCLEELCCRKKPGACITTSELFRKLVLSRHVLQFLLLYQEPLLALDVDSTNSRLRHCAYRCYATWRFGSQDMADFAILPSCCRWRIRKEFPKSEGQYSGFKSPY
Chain of rat P2X7 (Q64663 whole entry): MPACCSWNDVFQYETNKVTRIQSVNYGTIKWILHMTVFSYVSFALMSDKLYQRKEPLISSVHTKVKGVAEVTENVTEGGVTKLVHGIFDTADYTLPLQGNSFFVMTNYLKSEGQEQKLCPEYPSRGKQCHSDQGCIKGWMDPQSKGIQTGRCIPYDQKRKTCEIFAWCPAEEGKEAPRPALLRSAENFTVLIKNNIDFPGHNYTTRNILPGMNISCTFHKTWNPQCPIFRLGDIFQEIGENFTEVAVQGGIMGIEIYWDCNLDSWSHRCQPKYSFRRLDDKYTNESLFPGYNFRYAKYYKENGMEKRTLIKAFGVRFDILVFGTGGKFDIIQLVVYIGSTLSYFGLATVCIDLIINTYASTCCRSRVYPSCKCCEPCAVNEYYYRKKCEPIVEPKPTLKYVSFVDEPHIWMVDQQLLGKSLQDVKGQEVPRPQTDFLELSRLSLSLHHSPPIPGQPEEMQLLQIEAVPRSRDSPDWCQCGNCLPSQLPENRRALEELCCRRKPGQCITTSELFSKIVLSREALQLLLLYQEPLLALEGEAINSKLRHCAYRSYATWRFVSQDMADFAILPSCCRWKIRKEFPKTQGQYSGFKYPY

PBMC 10 μM (% control) (human P2X7 [1]; test compound 10 μM)	pIC50 (human P2X7 [2]; [3])	pIC50 (rat P2X7; [4])	PBMC 10 μM (% control) (human P2X7 [1]; [5])	pIC50 (human P2X7 [2]; [6])	pIC50 (rat P2X7; [7])	PBMC 1 μM (% control) (human P2X7 [1])	SMILES
2.0	5.92	6.49	–	–	–	–	Cc1c(C(=O)N2Cc3nnn(-c4ccn[nH]4)c3C[C@@H]2C)cccc1C(F)(F)F (single isomer, unassigned) [Example 347, (S*)-(6-methyl-1-(1H-pyrazol-3-yl)-6,7-dihydro-1H-[1,2,3]triazolo[4,5-c]pyridin-5(4H)-yl)(2-methyl-3-(trifluoromethyl)phenyl)methanone]
90.2	< 5.00	< 5.00	–	–	–	–	Cc1cc(-n2nnc3c2CCN(C(=O)c2cc(Cl)cc(C(F)(F)F)c2)[C@@H]3C)ncc1F (single isomer, unassigned) [Example 362, (R*)-(3-chloro-5-(trifluoromethyl)phenyl)(1-(5-fluoro-4-methylpyridin-2-yl)-4-methyl-6,7-dihydro-1H-[1,2,3]triazolo[4,5-c]pyridin-5(4H)-yl)methanone]
63.9	< 5.00	< 5.00	–	–	–	–	Cc1cc(-n2nnc3c2CCN(C(=O)c2cc(Cl)cc(C(F)(F)F)c2)[C@H]3C)ncc1F (single isomer, unassigned) [Example 363, (S*)-(3-chloro-5-(trifluoromethyl)phenyl)(1-(5-fluoro-4-methylpyridin-2-yl)-4-methyl-6,7-dihydro-1H-[1,2,3]triazolo[4,5-c]pyridin-5(4H)-yl)methanone]
1.3	5.79	5.06	–	–	–	–	Cc1cc(-n2nnc3c2CCN(C(=O)c2ccnc(C(F)(F)F)c2Cl)[C@H]3C)ncc1F (single isomer, unassigned) [Example 372, (S*)-(3-chloro-2-(trifluoromethyl)pyridin-4-yl)(1-(5-fluoro-4-methylpyridin-2-yl)-4-methyl-6,7-dihydro-1H-[1,2,3]triazolo[4,5-c]pyridin-5(4H)-yl)methanone]
–	–	–	−9.6	7.84	8.51	–	C[C@H]1Cc2c(nnn2-c2cc[nH]n2)CN1C(=O)c1ccnc(C(F)(F)F)c1Cl (single isomer, unassigned) [Example 422, (S*)-(3-chloro-2-(trifluoromethyl)pyridin-4-yl)(6-methyl-1-(1H-pyrazol-3-yl)-6,7-dihydro-1H-[1,2,3]triazolo[4,5-c]pyridin-5(4H)-yl)methanone]
–	–	–	−11.2	7.85	8.34	–	C[C@H]1Cc2c(nnn2-c2cc[nH]n2)CN1C(=O)c1ccnc(C(F)(F)F)c1F (single isomer, unassigned) [Example 424, (S*)-(3-fluoro-2-(trifluoromethyl)pyridin-4-yl)(6-methyl-1-(1H-pyrazol-3-yl)-6,7-dihydro-1H-[1,2,3]triazolo[4,5-c]pyridin-5(4H)-yl)methanone]
–	7.92	5.54	–	–	–	7.9	O=C(c1cccc(C(F)(F)F)c1Cl)N1CCc2c(ncn2-c2ccccc2)C1 [Example 2, (2-Chloro-3-(trifluoromethyl)phenyl)(1-phenyl-6,7-dihydro-1H-imidazo[4,5-c]pyridin-5(4H)-yl)methanone]
–	7.03	6.59	–	–	–	8.5	CC(C)C1c2ncn(-c3cnccn3)c2CCN1C(=O)c1cccc(C(F)(F)F)c1Cl (stereo not drawn) [Example 16, (2-Chloro-3-(trifluoromethyl)phenyl)(4-isopropyl-1-(pyrazin-2-yl)-6,7-dihydro-1H-imidazo[4,5-c]pyridin-5(4H)-yl)methanone]
–	7.63	7.58	–	–	–	2.9	CCOC(=O)C1c2ncn(-c3ccccn3)c2CCN1C(=O)c1cccc(C(F)(F)F)c1Cl (stereo not drawn) [Example 24, Ethyl 5-(2-chloro-3-(trifluoromethyl)benzoyl)-1-(pyridin-2-yl)-4,5,6,7-tetrahydro-1H-imidazo[4,5-c]pyridine-4-carboxylate]
–	8.11	7.26	–	–	–	14.0	CCOC(=O)C1c2ncn(-c3ccccc3)c2CCN1C(=O)c1cccc(C(F)(F)F)c1Cl (stereo not drawn) [Example 26, Ethyl 5-(2-chloro-3-(trifluoromethyl)benzoyl)-1-phenyl-4,5,6,7-tetrahydro-1H-imidazo[4,5-c]pyridine-4-carboxylate]
–	8.19	7.44	–	–	–	4.8	CCOC(=O)C1c2ncn(-c3cnccn3)c2CCN1C(=O)c1cccc(C(F)(F)F)c1Cl (stereo not drawn) [Example 28, Ethyl 5-{[2-chloro-3-(trifluoromethyl)phenyl]carbonyl}-1-pyrazin-2-yl-4,5,6,7-tetrahydro-1H-imidazo[4,5-c]pyridine-4-carboxylate]
–	7.21	5.60	–	–	–	–	CCOC(=O)C1c2ncn(-c3cnccn3)c2CCN1C(=O)c1cccc(Cl)c1Cl (stereo not drawn) [Example 29, Ethyl 5-[(2,3-dichlorophenyl)carbonyl]-1-pyrazin-2-yl-4,5,6,7-tetrahydro-1H-imidazo[4,5-c]pyridine-4-carboxylate]
–	6.46	6.63	–	–	–	–	O=C(C1c2ncn(-c3ccccn3)c2CCN1C(=O)c1cccc(C(F)(F)F)c1Cl)N1CCC1 (stereo not drawn) [Example 35, 4-(Azetidin-1-ylcarbonyl)-5-{[2-chloro-3-(trifluoromethyl)phenyl]carbonyl}-1-pyridin-2-yl-4,5,6,7-tetrahydro-1H-imidazo[4,5-c]pyridine]
–	8.57	5.73	–	–	–	−0.1	O=C(c1cccc(C(F)(F)F)c1Cl)N1CCc2c(nnn2-c2ccccc2)C1 [Example 61, 5-{[2-Chloro-3-(trifluoromethyl)phenyl]carbonyl}-1-phenyl-4,5,6,7-tetrahydro-1H-[1,2,3]triazolo[4,5-c]pyridine]
6.5	8.70	7.28	–	–	–	–	O=C(c1cccc(Cl)c1Cl)N1CCc2c(nnn2-c2ncccn2)C1 [Example 67, 5-[(2,3-Dichlorophenyl)carbonyl]-1-pyrimidin-2-yl-4,5,6,7-tetrahydro-1H-[1,2,3]triazolo[4,5-c]pyridine]
–	7.40	6.68	–	–	–	–	O=C(c1cccc(C(F)(F)F)c1Cl)N1CCc2c(nnn2-c2ccn[nH]2)C1 [Example 68, 5-{[2-Chloro-3-(trifluoromethyl)phenyl]carbonyl}-1-(1H-pyrazol-5-yl)-4,5,6,7-tetrahydro-1H-[1,2,3]triazolo[4,5-c]pyridine]
8.3	8.68	7.52	–	–	–	–	O=C(c1cccc(C(F)(F)F)c1Cl)N1CCc2c(nnn2-c2cc(F)ccn2)C1 [Example 131, (2-Chloro-3-(trifluoromethyl)phenyl)(1-(4-fluoropyridin-2-yl)-6,7-dihydro-1H-[1,2,3]triazolo[4,5-c]pyridin-5(4H)-yl)methanone]
3.4	6.59	5.87	–	–	–	–	O=C(c1ccc(Cl)cc1F)N1CCc2c(nnn2-c2ncccn2)C1 [Example 280, (4-chloro-2-fluorophenyl)(1-(pyrimidin-2-yl)-6,7-dihydro-1H-[1,2,3]triazolo[4,5-c]pyridin-5(4H)-yl)methanone]
−1.9	8.66	6.46	–	–	–	–	Cc1c(C(=O)N2CCc3c(nnn3-c3ncccn3)C2)cccc1C(F)(F)F [Example 281, (2-methyl-3-(trifluoromethyl)phenyl)(1-(pyrimidin-2-yl)-6,7-dihydro-1H-[1,2,3]triazolo[4,5-c]pyridin-5(4H)-yl)methanone]
98.2	< 5.00	< 5.00	–	–	–	–	Cc1cc(-n2nnc3c2CCN(C(=O)c2cc(C(F)(F)F)ccc2Cl)C3C)ncc1F (stereo not drawn) [Example 352, (2-chloro-5-(trifluoromethyl)phenyl)(1-(5-fluoro-4-methylpyridin-2-yl)-4-methyl-6,7-dihydro-1H-[1,2,3]triazolo[4,5-c]pyridin-5(4H)-yl)methanone]
75.3	< 5.00	< 5.00	–	–	–	–	Cc1cc(-n2nnc3c2CCN(C(=O)c2cc(Cl)cc(C(F)(F)F)c2)C3C)ncc1F (stereo not drawn) [Example 361, (3-chloro-5-(trifluoromethyl)phenyl)(1-(5-fluoro-4-methylpyridin-2-yl)-4-methyl-6,7-dihydro-1H-[1,2,3]triazolo[4,5-c]pyridin-5(4H)-yl)methanone]
17.2	5.78	4.99	–	–	–	–	Cc1ccnc(-n2nnc3c2CCN(C(=O)c2cccc(OC(F)(F)F)c2F)C3C)c1 (stereo not drawn) [Example 373, (2-fluoro-3-(trifluoromethoxy)phenyl)(4-methyl-1-(4-methylpyridin-2-yl)-6,7-dihydro-1H-[1,2,3]triazolo[4,5-c]pyridin-5(4H)-yl)methanone]
104.3	< 5.00	< 5.00	–	–	–	–	Cc1cc(-n2nnc3c2CCN(C(=O)c2cccc(OC(F)(F)F)c2F)C3C)ncc1F (stereo not drawn) [Example 374, (2-fluoro-3-(trifluoromethoxy)phenyl)(1-(5-fluoro-4-methylpyridin-2-yl)-4-methyl-6,7-dihydro-1H-[1,2,3]triazolo[4,5-c]pyridin-5(4H)-yl)methanone]
−6.3	5.86	< 5.00	–	–	–	–	CC1c2nnn(-c3ncc[nH]3)c2CCN1C(=O)c1cccc(Cl)c1Cl (stereo not drawn) [Example 384, (1-(1H-imidazol-2-yl)-4-methyl-6,7-dihydro-1H-[1,2,3]triazolo[4,5-c]pyridin-5(4H)-yl)(2,3-dichlorophenyl)methanone]

SMILES	PBMC 10 μM (% control) (human P2X7 [1]; test compound 10 μM)	pIC50 (human P2X7 [2]; [3])	pIC50 (rat P2X7; [4])	PBMC 10 μM (% control) (human P2X7 [1]; [5])	pIC50 (human P2X7 [2]; [6])	pIC50 (rat P2X7; [7])	PBMC 1 μM (% control) (human P2X7 [1])
O=C(c1cccc(C(F)(F)F)c1F)N1CCc2c(nnn2-c2ncccn2)C1 [Example 66, 5-{[2-Fluoro-3-(trifluoromethyl)phenyl]carbonyl}-1-pyrimidin-2-yl-4,5,6,7-tetrahydro-1H-[1,2,3]triazolo[4,5-c]pyridine]	2.7	7.65	6.59	–	–	–	–
